# Test results reported in ChEMBL document CHEMBL1828505, “Bioactive components from the heartwood of Pterocarpus santalinus” (Bioorg Med Chem Lett, 2011).
# Legend:
# [1] = Cytotoxicity against human KBVIN cells; assay type: functional, cell-based
# [2] = Cytotoxicity against human Hep3B cells; assay type: functional, cell-based, Hep 3B2
# KB = assay: Cytotoxicity against human KB cells; assay type: functional, cell-based
# HepG2 = assay: Cytotoxicity against human HepG2 cells; assay type: functional, cell-based
# DU-145 = assay: Cytotoxicity against human DU145 cells; assay type: functional, cell-based
# [3] = Antiinflammatory activity in human neutrophils assessed as inhibition of fMLP/CB-indcued superoxide anion production; assay type: functional, cell-based; conditions: Neutrophil
# [4] = Antiinflammatory activity in human neutrophils assessed as inhibition of fMLP/CB-induced elastase release; assay type: functional, cell-based; conditions: Neutrophil
# A549 = assay: Cytotoxicity against human A549 cells; assay type: functional, cell-based
# Neutrophil = assay: Ratio of LY294002 IC50 to compound IC50 for inhibition of fMLP/CB-indcued elastase release in human neutrophils; assay type: functional
IC50 [3] [µM],IC50 [4] [µM],Compound,IC50 [1],IC50 [2] [µM],IC50 (KB),IC50 (HepG2),IC50 (DU-145),IC50 (A549),Ratio IC50 (Neutrophil)
0.99,4.24,COC1=CC(=O)c2cc(-c3ccc(OC)c(O)c3)c3cc(O)c(OC)cc3c2C1=O [PTEROLINUS K],> 10 µg/mL,10.9,> 10 µg/mL,> 10 µg/mL,> 10 µg/mL,> 10 µg/mL,–
–,0.95,COc1ccc(C(=O)/C=C/c2cc(O)c(OC)cc2O)cc1O [PTEROLINUS L],22.4 µM,20.9,17.2 µM,20.4 µM,29.8 µM,21.9 µM,6
3.84,6.48,O=c1cc(N2CCOCC2)oc2c(-c3ccccc3)cccc12 [LY-294002],–,–,–,–,–,–,–

# Second part, the compound before the results:
Compound,IC50 [3] [µM],IC50 [4] [µM],IC50 [1],IC50 [2] [µM],IC50 (KB),IC50 (HepG2),IC50 (DU-145),IC50 (A549),Ratio IC50 (Neutrophil)
COc1cccc2c1C(=O)c1c(O)c3c(c(O)c1C2=O)C[C@@](O)(C(=O)CO)C[C@@H]3O[C@H]1C[C@H](N)[C@H](O)[C@H](C)O1 [DOXORUBICIN],–,–,–,1.57,–,1.29 µM,–,–,–
COc1cc2oc(=O)cc(-c3ccccc3)c2cc1O [DALBERGIN],–,–,> 10 µg/mL,–,> 10 µg/mL,–,> 10 µg/mL,> 10 µg/mL,–
COc1cc(O)c(C(=O)c2ccccc2)cc1O [CEAROIN],–,–,32.2 µM,–,35.3 µM,–,> 10 µg/mL,> 10 µg/mL,–
